In PubChem BioAssay (NCI):
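Five compound concentrations were applied to cells in 96-well plates for 48 hours; endpoints were derived by simple linear interpolation of the resulting dose-response curve. TGI: total growth inhibition.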

Experiments:
Assay in all cases: NCI-60 cell line screen, 48 h
CAKI-1 renal = test system: CAKI-1 renal
HCT-116 colon = test system: HCT-116 colon
COLO 205 colon = test system: COLO 205 colon
RXF 393 renal = test system: RXF 393 renal
LOX IMVI melanoma = test system: LOX IMVI melanoma
EKVX NSCLC = test system: EKVX NSCLC
SF-295 CNS = test system: SF-295 CNS
OVCAR-3 ovarian = test system: OVCAR-3 ovarian
SR leukemia = test system: SR leukemia
NCI-H226 lung = test system: NCI-H226 lung
SK-MEL-28 melanoma = test system: SK-MEL-28 melanoma
UO-31 renal = test system: UO-31 renal
786-0 renal = test system: 786-0 renal
HCC-2998 colon = test system: HCC-2998 colon
T-47D breast = test system: T-47D breast
ACHN renal = test system: ACHN renal
SF-268 CNS = test system: SF-268 CNS
MDA-MB-435 = test system: MDA-MB-435
SNB-75 CNS = test system: SNB-75 CNS
HT29 colon = test system: HT29 colon

| Compound | TGI (CAKI-1 renal) | TGI (HCT-116 colon) | TGI (COLO 205 colon) | TGI (RXF 393 renal) | TGI (LOX IMVI melanoma) | TGI (EKVX NSCLC) | TGI (SF-295 CNS) | TGI (OVCAR-3 ovarian) | TGI (SR leukemia) | TGI (NCI-H226 lung) | TGI (SK-MEL-28 melanoma) | TGI (UO-31 renal) | TGI (786-0 renal) | TGI (HCC-2998 colon) | TGI (T-47D breast) | TGI (ACHN renal) | TGI (SF-268 CNS) | TGI (MDA-MB-435) | TGI (SNB-75 CNS) | TGI (HT29 colon) |
| --- | --- | --- | --- | --- | --- | --- | --- | --- | --- | --- | --- | --- | --- | --- | --- | --- | --- | --- | --- | --- |
| COc1ccc2c(c1)CCCN2S(=O)(=O)c1ccccc1[N+](=O)[O-] | > 100 µM | 88.9 µM | > 79.8 µM | 55.9 µM | > 88.6 µM | > 91.9 µM | > 100 µM | > 92.3 µM | > 78.8 µM | > 96.2 µM | > 100 µM | > 94.5 µM | > 100 µM | 84.5 µM | > 87.8 µM | > 100 µM | > 96.8 µM | 22 µM | > 87 µM | 77.2 µM |
| CCCCCCOc1ccc(C(=O)N(C)O)cc1 | > 91.2 µM | > 100 µM | 56 µM | 97.6 µM | > 100 µM | > 100 µM | > 62.4 µM | > 100 µM | 39.6 µM | 59.5 µM | > 100 µM | 60.9 µM | 55.7 µM | 99 µM | 99.4 µM | 30.3 µM | 55.7 µM | 98.1 µM | > 94.4 µM | 27.5 µM |
| N#Cc1c(Cl)nc2ccccc2c1N=[N+]=[N-] | 3.12 µM | 3.06 µM | 3.56 µM | 2.93 µM | 3.47 µM | 5.53 µM | 22.4 µM | 3.76 µM | 3.93 µM | 33.1 µM | 9.11 µM | 9.4 µM | 7.17 µM | 14.4 µM | 5.83 µM | 4.11 µM | 11.2 µM | 17.7 µM | 21.9 µM | 3.26 µM |
| CCOc1ccc(N=NS(=O)(=O)O)cc1 | > 100 µM | > 100 µM | > 100 µM | > 100 µM | > 100 µM | > 100 µM | > 100 µM | > 100 µM | > 100 µM | > 100 µM | > 100 µM | > 100 µM | > 100 µM | > 100 µM | > 100 µM | > 100 µM | > 100 µM | > 100 µM | > 100 µM | > 100 µM |
| N#Cc1c(O)c(N=Nc2ccc(Cl)cc2)c(=O)n2c1[nH]c1ccccc12 | > 100 µM | > 100 µM | > 100 µM | > 100 µM | > 100 µM | > 100 µM | > 100 µM | 80.8 µM | > 100 µM | > 100 µM | > 100 µM | > 100 µM | > 100 µM | > 100 µM | > 100 µM | > 100 µM | > 100 µM | > 100 µM | > 100 µM | > 100 µM |
| O=C1c2ccccc2CC12Cc1ccccc1C2 | > 100 µM | > 100 µM | > 100 µM | 70.1 µM | > 100 µM | 78.3 µM | > 100 µM | > 100 µM | 83.5 µM | > 100 µM | > 100 µM | > 100 µM | > 100 µM | 70.3 µM | > 100 µM | > 100 µM | > 100 µM | > 100 µM | 90.3 µM | 70.5 µM |
| Cc1sc(C)c2c1C(=O)CC2N (stereo not given) | 28.9 µM | 28.9 µM | 40.1 µM | 34.8 µM | 32.2 µM | > 100 µM | > 100 µM | 32.8 µM | > 100 µM | > 54.9 µM | > 62.5 µM | 29.5 µM | 22.5 µM | 35.1 µM | > 83 µM | 31.2 µM | > 57.3 µM | 53.6 µM | > 83.1 µM | > 59.3 µM |
| O=c1[nH]nc(Cn2c3ccc(Br)cc3c3nc4ccccc4nc32)n1C1CCCCC1 | > 100 µM | > 100 µM | > 100 µM | > 100 µM | > 100 µM | > 100 µM | > 100 µM | > 100 µM | > 100 µM | > 100 µM | 59.2 µM | > 100 µM | > 100 µM | > 100 µM | > 100 µM | > 100 µM | > 100 µM | > 100 µM | > 100 µM | > 100 µM |
| C=C(C)C(O)C(O)C[C@@H](C)C1CC[C@]23C[C@]12CCC1[C@@]2(C)CCC(OC(C)=O)C(C)(C)C2CC(OC2OC(CO)C(O)C(O)C2O)[C@]13C (stereo not given in full) | > 100 µM | 29.5 µM | 31.5 µM | 29.3 µM | 32.3 µM | > 100 µM | 36.7 µM | 32.3 µM | 36.3 µM | 39.9 µM | 37.1 µM | > 100 µM | 35.1 µM | 29.1 µM | 31.6 µM | > 100 µM | 33 µM | 31.7 µM | 43 µM | 33.6 µM |
